Data as given in patent US12102625B2, “Solid forms of FXR agonists” (Gilead Sciences, Inc., priority 2019, dated 2024).
Where a name gives a salt, the structure may show the parent alone.

What was measured:
[1] = Solid-form physical stability at ambient conditions / humidity; format: physicochemical
[2] = Slurry of the tromethamine salt in aqueous media (disproportionation); format: physicochemical

## O=C(O)c1ccnc(N2CC(O)(c3ccc(OCc4c(-c5c(Cl)cccc5Cl)noc4C4CC4)cc3Cl)C2)c1 [Formula I tromethamine salt Form II]
[1]; about >20% RH
  moisture absorption and form conversion: rapidly absorbs moisture at about >20% RH and converts to Formula I tromethamine salt hydrate II

## O=C(O)c1ccnc(N2CC(O)(c3ccc(OCc4c(-c5c(Cl)cccc5Cl)noc4C4CC4)cc3Cl)C2)c1
[1]; ambient conditions, depending on % RH
  time to full conversion to Formula I tromethamine salt hydrate I: ≤ 1 h

## O=C(O)c1ccnc(N2CC(O)(c3ccc(OCc4c(-c5c(Cl)cccc5Cl)noc4C4CC4)cc3Cl)C2)c1 [Formula I tromethamine salt MTBE solvate]
[1]; ambient conditions
  solid form conversion at ambient conditions: converted to disordered material at ambient conditions

## O=C(O)c1ccnc(N2CC(O)(c3ccc(OCc4c(-c5c(Cl)cccc5Cl)noc4C4CC4)cc3Cl)C2)c1 [Formula I tromethamine salt methanol solvate I]
[1]; ambient conditions
  solid form conversion at ambient conditions: loses methanol very rapidly at ambient conditions and converts to tromethamine salt methanol solvate III

## O=C(O)c1ccnc(N2CC(O)(c3ccc(OCc4c(-c5c(Cl)cccc5Cl)noc4C4CC4)cc3Cl)C2)c1 [Formula I tromethamine salt ethanol solvate]
[1]; ambient conditions
  solid form conversion at ambient conditions: converted to Formula I tromethamine salt hydrate I at ambient conditions

## O=C(O)c1ccnc(N2CC(O)(c3ccc(OCc4c(-c5c(Cl)cccc5Cl)noc4C4CC4)cc3Cl)C2)c1 [Formula I tromethamine salt]
[2]; MeOH/water (0.4-0.6 water activity)
  salt stability (disproportionation to zwitterion Form II): disproportionation
[2]; slurry in water
  salt stability in slurry (disproportionation to zwitterion hydrate): disproportionation of the salt
